From patent US20250195521A1 (Revolution Medicines, Inc., priority 2020, published 2025)

How the values were obtained:
[1] = system: Capan-1 cells (K-Ras G12V); assay: CellTiter-Glo cell viability, Capan-1; assay type: cell-based, human; conditions: Homo sapiens, CAPAN-1, 120 h, K-Ras G12V, 5-day treatment; read-out: Capan-1 Cell Viability IC50
Method in brief: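 Endpoint: CellTiter-Glo luminescence on day 5, following ~30 min at room temperature. Data as (sample/mean DMSO)×100, four-parameter logistic fit.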

[2] = system: NCI-H358 cells (K-Ras G12C); assay: CellTiter-Glo cell viability, NCI-H358; assay type: cell-based, human; conditions: Homo sapiens, NCI-H358, 120 h, K-Ras G12C, 5-day treatment; read-out: H358 Cell Viability IC50
Protocol: Note—The following protocol describes a procedure for monitoring cell viability of K-Ras mutant cancer cell lines in response to a compound of the invention. Other RAS isoforms may be employed, though the number of cells to be seeded will vary based on cell line used.
Test compounds (132.5 nl) were directly dispensed into the assay plates containing cells. […] On day 5, assay plates and their contents were equilibrated to room temperature for approximately 30 minutes. […] Luminescence was measured using the PerkinElmer Enspire. Data were normalized by the following: (Sample signal/Avg. DMSO)*100. The data were fit using a four-parameter logistic fit.

[3] = target: KRAS G12C (Homo sapiens (Human), UniProt P01116+P62937, G12C); assay: Ras-Raf disruption/FRET/MOA assay (BRAF RBD, Cyclophilin A); assay type: biochemical; conditions: read-out: KRAS G12C FRET IC50
Chain of KRAS G12C (P01116-2 other isoform, or with tags, fused parts or gaps G12C): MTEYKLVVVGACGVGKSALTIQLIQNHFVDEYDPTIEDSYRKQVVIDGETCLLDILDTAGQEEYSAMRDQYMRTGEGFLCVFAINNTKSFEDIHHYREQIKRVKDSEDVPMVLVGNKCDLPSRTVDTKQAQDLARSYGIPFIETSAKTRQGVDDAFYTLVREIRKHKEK
Chain of KRAS G12C (P62937 whole entry): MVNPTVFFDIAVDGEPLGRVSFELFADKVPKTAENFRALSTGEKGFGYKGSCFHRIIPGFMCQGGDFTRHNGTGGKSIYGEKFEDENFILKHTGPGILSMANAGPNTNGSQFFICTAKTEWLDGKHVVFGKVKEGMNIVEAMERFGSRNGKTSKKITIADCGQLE
Method in brief: (§1)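 His6-K-Ras-GMPPNP (12.5 nM), GST-BRAF RBD (50 nM) and tagless Cyclophilin A (25 μM) were combined in 25 mM HEPES pH 7.3 with 100 mM NaCl, 5 mM MgCl2, 0.1% BSA and 0.002% Tween20, with compound as a 10-point 3-fold series from 30 μM final, then incubated 3 h at 25° C.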

[4] = target: KRAS G12D (Homo sapiens (Human), UniProt P01116+P62937, G12D); assay: as above; assay type: biochemical; conditions: read-out: KRAS G12D FRET IC50
Chain of KRAS G12D (P01116 other isoform, or with tags, fused parts or gaps G12D): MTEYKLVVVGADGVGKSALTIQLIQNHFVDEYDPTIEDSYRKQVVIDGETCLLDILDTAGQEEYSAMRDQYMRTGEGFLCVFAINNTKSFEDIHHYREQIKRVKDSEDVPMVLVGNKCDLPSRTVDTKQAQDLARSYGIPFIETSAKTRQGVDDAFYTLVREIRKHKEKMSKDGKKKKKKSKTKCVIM
Chain of KRAS G12D (P62937 whole entry): as the sequence (P62937 whole entry) above
Method in brief: as §1

[5] = target: KRAS WT (Homo sapiens (Human), UniProt P01116+P62937); assay: as above; assay type: biochemical; conditions: read-out: KRAS WT FRET data IC50
Chain of KRAS WT (P01116 other isoform, or with tags, fused parts or gaps): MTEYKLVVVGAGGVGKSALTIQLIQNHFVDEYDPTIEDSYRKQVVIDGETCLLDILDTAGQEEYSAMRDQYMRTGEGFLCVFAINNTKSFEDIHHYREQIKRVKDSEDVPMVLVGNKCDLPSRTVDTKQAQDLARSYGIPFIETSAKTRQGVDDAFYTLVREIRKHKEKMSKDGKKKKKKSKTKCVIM
Chain of KRAS WT (P62937 whole entry): as the sequence (P62937 whole entry) above
Method in brief: as §1

[6] = target: KRAS G13C (Homo sapiens (Human), UniProt P01116+P62937, G13C); assay: as above; assay type: biochemical; conditions: read-out: KRAS G13C FRET IC50
Chain of KRAS G13C (P01116 other isoform, or with tags, fused parts or gaps G13C): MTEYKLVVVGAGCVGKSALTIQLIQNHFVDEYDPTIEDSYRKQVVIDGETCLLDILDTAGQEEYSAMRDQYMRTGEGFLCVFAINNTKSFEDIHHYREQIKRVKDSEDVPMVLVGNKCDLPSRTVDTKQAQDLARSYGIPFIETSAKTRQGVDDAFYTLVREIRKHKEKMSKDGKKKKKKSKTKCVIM
Chain of KRAS G13C (P62937 whole entry): as the sequence (P62937 whole entry) above
Method in brief: as §1

[7] = target: NRAS G12C (Homo sapiens (Human), UniProt P01111+P62937, G12C); assay: as above; assay type: biochemical; conditions: read-out: NRAS G12C FRET data IC50
Chain of NRAS G12C (P01111 whole entry G12C): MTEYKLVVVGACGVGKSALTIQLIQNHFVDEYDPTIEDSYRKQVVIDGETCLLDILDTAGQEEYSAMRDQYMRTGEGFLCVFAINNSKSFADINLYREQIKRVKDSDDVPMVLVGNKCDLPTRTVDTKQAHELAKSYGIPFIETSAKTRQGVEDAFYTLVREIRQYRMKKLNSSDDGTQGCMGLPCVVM
Chain of NRAS G12C (P62937 whole entry): as the sequence (P62937 whole entry) above
Method in brief: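 Ras-GMPPNP (12.5 nM), BRAF RBD (50 nM) and 25 μM Cyclophilin A were incubated with compound for 3 h at 25° C, then detected 1.5 h with anti-His Eu and anti-GST APC; IC50 values follow from the reduced TR-FRET ratio.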

[8] = target: KRAS G12V (Homo sapiens (Human), UniProt P01116+P62937, G12V); assay: as above; assay type: biochemical; conditions: read-out: KRAS G12V FRET IC50
Chain of KRAS G12V (P01116 other isoform, or with tags, fused parts or gaps G12V): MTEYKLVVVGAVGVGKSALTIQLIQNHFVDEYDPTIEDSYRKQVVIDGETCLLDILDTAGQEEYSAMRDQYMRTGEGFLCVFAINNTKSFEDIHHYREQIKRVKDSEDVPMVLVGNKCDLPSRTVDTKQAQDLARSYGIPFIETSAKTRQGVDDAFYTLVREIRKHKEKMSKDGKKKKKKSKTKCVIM
Chain of KRAS G12V (P62937 whole entry): as the sequence (P62937 whole entry) above
Method in brief: as §1

[9] = target: KRAS G13D (Homo sapiens (Human), UniProt P01116+P62937, G13D); assay: as above; assay type: biochemical; conditions: read-out: KRAS G13D FRET data IC50
Chain of KRAS G13D (P01116 other isoform, or with tags, fused parts or gaps G13D): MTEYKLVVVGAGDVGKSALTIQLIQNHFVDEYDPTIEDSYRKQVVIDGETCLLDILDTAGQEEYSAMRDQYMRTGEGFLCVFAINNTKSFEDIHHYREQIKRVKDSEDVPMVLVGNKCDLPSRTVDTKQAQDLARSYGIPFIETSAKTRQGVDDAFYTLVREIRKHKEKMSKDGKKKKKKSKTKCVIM
Chain of KRAS G13D (P62937 whole entry): as the sequence (P62937 whole entry) above
Method in brief: as §1

[10] = target: KRAS G12S (Homo sapiens (Human), UniProt P01116+P62937, G12S); assay: as above; assay type: biochemical; conditions: read-out: KRAS G12S FRET IC50
Chain of KRAS G12S (P01116 other isoform, or with tags, fused parts or gaps G12S): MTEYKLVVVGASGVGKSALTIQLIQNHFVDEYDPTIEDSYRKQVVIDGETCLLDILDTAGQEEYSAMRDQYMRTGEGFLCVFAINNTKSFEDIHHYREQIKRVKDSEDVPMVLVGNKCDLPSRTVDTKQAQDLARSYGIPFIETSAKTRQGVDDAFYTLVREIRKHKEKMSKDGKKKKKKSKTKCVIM
Chain of KRAS G12S (P62937 whole entry): as the sequence (P62937 whole entry) above
Method in brief: as §1

Structure (SMILES)	IC50 [2] [nM]	IC50 [3] [nM]	IC50 [4] [nM]	IC50 [5] [nM]	IC50 [6] [nM]	IC50 [7] [nM]	IC50 [8] [nM]	IC50 [9] [nM]	IC50 [10] [nM]	IC50 [1] [nM]
CCn1c(-c2cnccc2COC)c2c3cc(ccc31)-c1cc(O)cc(c1)C[C@H](NC(=O)[C@H](C(C)C)N(C)C(=O)O[C@@H]1CCOC1)C(=O)N1CCC[C@H](N1)C(=O)OCC(C)(C)C2 [Compound A82]	1000 to 10000	100 to 1000	1000 to 10000	100 to 1000	100 to 1000	1000 to 10000	1000 to 10000	1000 to 10000	1000 to 10000	1000 to 10000
CCn1c(-c2cccnc2[C@H](C)OC)c2c3cc(ccc31)-c1cc(O)cc(c1)C[C@H](NC(=O)[C@H](C(C)C)N(C)C(=O)[C@H]1[C@@H]3CNC[C@@H]31)C(=O)N1CCC[C@H](N1)C(=O)OCC(C)(C)C2 [Compound A163]	1000 to 10000	100 to 1000	100 to 1000	100 to 1000	100 to 1000	100 to 1000	1000 to 10000	10 to 100	100 to 1000	> 10000
CCn1c(-c2cccnc2[C@H](C)OC)c2c3cc(ccc31)-c1cc(O)cc(c1)C[C@H](NC(=O)[C@H](C(C)C)N(C)C(=O)[C@H]1CCN(C(=O)CCc3ccccc3)C1)C(=O)N1CCC[C@H](N1)C(=O)OCC(C)(C)C2 [Compound A201]	100 to 1000	10 to 100	100 to 1000	100 to 1000	10 to 100	10 to 100	10 to 100	100 to 1000	100 to 1000	100 to 1000
CCn1c(-c2ccccc2[C@H](C)OC)c2c3cc(ccc31)-c1csc(n1)C[C@H](NC(=O)[C@H](C(C)C)N(C)C(=O)[C@H]1CCN(C(=O)OC3COC3)C1)C(=O)N1CCC[C@H](N1)C(=O)OCC(C)(C)C2 [Compound A203]	100 to 1000	1000 to 10000	> 10000	1000 to 10000	1000 to 10000	1000 to 10000	1000 to 10000	1000 to 10000	1000 to 10000	100 to 1000
CCn1c(-c2cccnc2[C@H](C)OC)c2c3cc(ccc31)-c1cc(O)cc(c1)C[C@H](NC(=O)[C@H](C(C)C)N(C)C(=O)C1CCC1)C(=O)N1CCC[C@H](N1)C(=O)OCC(C)(C)C2 [Compound A218]	10 to 100	10 to 100	100 to 1000	10 to 100	10 to 100	10 to 100	10 to 100	100 to 1000	10 to 100	10 to 100
CCn1c(-c2cccnc2[C@H](C)OC)c2c3cc(ccc31)-c1cc(O)cc(c1)C[C@H](NC(=O)[C@H](C(C)C)N(C)C(=O)C1CC1)C(=O)N1CCC[C@H](N1)C(=O)OCC(C)(C)C2 [Compound A224]	10 to 100	10 to 100	100 to 1000	10 to 100	10 to 100	10 to 100	10 to 100	10 to 100	10 to 100	10 to 100
CCn1c(-c2cccnc2[C@H](C)OC)c2c3cc(ccc31)-c1cc(O)cc(c1)C[C@H](NC(=O)[C@H](C(C)C)N(C)C(=O)[C@H]1CCCO1)C(=O)N1CCC[C@H](N1)C(=O)OCC(C)(C)C2 [Compound A240]	10 to 100	10 to 100	100 to 1000	100 to 1000	10 to 100	10 to 100	100 to 1000	100 to 1000	100 to 1000	10 to 100
CCn1c(-c2cccnc2[C@H](C)OC)c2c3cc(ccc31)-c1cc(O)cc(c1)C[C@H](NC(=O)[C@H](C(C)C)N(C)C(=O)[C@H]1CCCCNC1)C(=O)N1CCC[C@H](N1)C(=O)OCC(C)(C)C2 [Compound A242]	10 to 100	10 to 100	10 to 100	10 to 100	10 to 100	10 to 100	100 to 1000	10 to 100	10 to 100	100 to 1000

Second part, led by results:

IC50 [2] [nM]	IC50 [3] [nM]	IC50 [4] [nM]	IC50 [5] [nM]	IC50 [6] [nM]	IC50 [7] [nM]	IC50 [8] [nM]	IC50 [9] [nM]	IC50 [10] [nM]	Structure (SMILES)	IC50 [1] [nM]
1000 to 10000	1000 to 10000	> 10000	1000 to 10000	1000 to 10000	1000 to 10000	1000 to 10000	> 10000	1000 to 10000	CCn1c(-c2cccnc2[C@H](C)OC)c2c3cc(ccc31)-c1csc(n1)C[C@H](NC(=O)[C@H](C(C)C)N(C)C(=O)[C@H]1CCN(C(C)=O)C1)C(=O)N1CCC[C@H](N1)C(=O)OCC(C)(C)C2 [Compound A244]	100 to 1000
10 to 100	10 to 100	10 to 100	10 to 100	10 to 100	10 to 100	10 to 100	10 to 100	10 to 100	CCn1c(-c2cccnc2[C@H](C)OC)c2c3cc(ccc31)-c1cc(O)cc(c1)C[C@H](NC(=O)[C@H](C(C)C)N(C)C(=O)C1Cc3nccn3C1)C(=O)N1CCC[C@H](N1)C(=O)OCC(C)(C)C2 (stereo partly drawn) [Compound A249]	100 to 1000
1000 to 10000	1000 to 10000	> 10000	1000 to 10000	100 to 1000	1000 to 10000	1000 to 10000	1000 to 10000	1000 to 10000	CCn1c(-c2cnccc2COC)c2c3cc(ccc31)-c1cc(O)cc(c1)C[C@H](NC(=O)C(C)C1CCOCC1)C(=O)N1CCC[C@H](N1)C(=O)OCC(C)(C)C2 (stereo partly drawn) [Compound A258]	> 10000
10 to 100	1000 to 10000	1000 to 10000	1000 to 10000	1000 to 10000	1000 to 10000	1000 to 10000	1000 to 10000	1000 to 10000	CCn1c(-c2cccnc2[C@H](C)OC)c2c3cc(ccc31)-c1csc(n1)C[C@H](NC(=O)[C@H](C(C)C)N(C)C(=O)N1CCN(C)CC13CC3)C(=O)N1CCC[C@H](N1)C(=O)OCC(C)(C)C2 [Compound A307]	100 to 1000
100 to 1000	100 to 1000	1000 to 10000	100 to 1000	1000 to 10000	100 to 1000	1000 to 10000	1000 to 10000	1000 to 10000	CCn1c(-c2cccnc2[C@H](C)OC)c2c3cc(ccc31)-c1csc(n1)C[C@H](NC(=O)[C@H](C(C)C)N(C)C(=O)N1CC3CCC1CN3C)C(=O)N1CCC[C@H](N1)C(=O)OCC(C)(C)C2 [Compound A308]	100 to 1000
10 to 100	100 to 1000	1000 to 10000	100 to 1000	100 to 1000	100 to 1000	100 to 1000	100 to 1000	100 to 1000	CCn1c(-c2cccnc2[C@H](C)OC)c2c3cc(ccc31)-c1csc(n1)C[C@H](NC(=O)[C@H](C(C)C)N(C)C(=O)N1CC(N(C)C(C)C)C1)C(=O)N1CCC[C@H](N1)C(=O)OCC(C)(C)C2 [Compound A318]	10 to 100
100 to 1000	100 to 1000	1000 to 10000	100 to 1000	100 to 1000	100 to 1000	100 to 1000	1000 to 10000	1000 to 10000	CCn1c(-c2cccnc2[C@H](C)OC)c2c3cc(ccc31)-c1cccc(c1)C[C@H](NC(=O)[C@H](C(C)C)N(C)C(=O)N1CC(OC)C1)C(=O)N1CCC[C@H](N1)C(=O)OCC(C)(C)C2 [Compound A355]	100 to 1000
